Earlier results in paper PMC3237771 (Biomacromolecules, 2011).

Details: aqueous buffer; no reference given

- Half-life in aqueous environments: < 10 h
SMILES: N=c1c[n+](N2CCOCC2)[n-]o1 [SIN-1, 3-morpholinosydnonimine]
